Source: ChEMBL document CHEMBL4257529, “Antifungal amphiphilic kanamycins: new life for an old drug” (Medchemcomm, 2018)
Converted amounts (≈) assume the structure as drawn.

Legend:
Format in all cases: functional
[1] = test system: Fusarium graminearum; assay: Antifungal activity against Fusarium graminearum B4-5A strain D after 48 hrs by microdilution assay
[2] = test system: Fusarium graminearum; assay: Antifungal activity against Fusarium graminearum infected in wheat plant assessed as fusarium head blight incidence at 360 mg/L (reference value: 70%)
[3] = test system: Fusarium graminearum; assay: Synergistic antifungal activity against Fusarium graminearum infected in wheat plant assessed as fusarium head blight severity at 360 mg/L in presence of 0.512 L/ha caramba (reference value: 75%)
[4] = test system: Candida parapsilosis; assay: Antifungal activity against sensitive Candida parapsilosis; conditions: Lodderomyces parapsilosis
[5] = test system: Cryptococcus neoformans; assay: Antifungal activity against Cryptococcus neoformans H99; conditions: var grubii H99
[6] = test system: Escherichia coli; assay: Antibacterial activity against Escherichia coli TG1
[7] = test system: Fusarium graminearum; assay: Synergistic antifungal activity against Fusarium graminearum B4-5A strain D assessed as fluconazole MIC after 48 hrs by microdilution assay
[8] = test system: Fusarium graminearum; assay: Antifungal activity against Fusarium graminearum infected in wheat plant assessed as fusarium head blight index at 180 mg/L (reference value: 53%)
[9] = test system: Candida albicans; assay: Antifungal activity against sensitive Candida albicans MYA-2876
[10] = test system: Fusarium graminearum; assay: Synergistic antifungal activity against Fusarium graminearum B4-5A strain B in presence of fluconazole after 48 hrs by checkerboard method
[11] = test system: Fusarium graminearum; assay: Synergistic antifungal activity against Fusarium graminearum B4-5A strain D in presence of fluconazole after 48 hrs by microdilution assay
[12] = test system: Fusarium graminearum; assay: Synergistic antifungal activity against Fusarium graminearum infected in wheat plant assessed as contamination of wheat heads and kernels with deoxynivalenol at 360 mg/L in presence of 2.8 ml/L proline 480 SC (reference value: 1.2 ppm)
[13] = test system: Fusarium graminearum; assay: Synergistic antifungal activity against Fusarium graminearum B4-5A strain E in presence of fluconazole after 48 hrs by checkerboard method
[14] = test system: Cryptococcus neoformans; assay: Antifungal activity against Cryptococcus neoformans 90-26
[15] = test system: Fusarium graminearum; assay: Synergistic antifungal activity against Fusarium graminearum infected in wheat plant assessed as fusarium head blight index at 180 mg/L in presence of 0.438 L/ha prosaro 421 SC (reference value: 53%)
[16] = test system: Fusarium graminearum; assay: Synergistic antifungal activity against Fusarium graminearum B4-5A strain A assessed as fluconazole MIC after 48 hrs by microdilution assay
[17] = test system: Fusarium graminearum; assay: Synergistic antifungal activity against Fusarium graminearum infected in wheat plant assessed as fusarium head blight incidence at 180 mg/L in presence of 0.512 L/ha caramba (reference value: 70%)
[18] = test system: Fusarium graminearum; assay: Synergistic antifungal activity against Fusarium graminearum infected in wheat plant assessed as fusarium head blight index at 360 mg/L in presence of 0.438 L/ha prosaro 421 SC (reference value: 53%)
[19] = test system: Candida albicans; assay: Antifungal activity against resistant Candida albicans ATCC 64124
[20] = test system: Fusarium graminearum; assay: Antifungal activity against Fusarium graminearum infected in wheat plant assessed as fusarium head blight severity at 180 mg/L (reference value: 75%)
[21] = test system: Fusarium graminearum; assay: Antifungal activity against Fusarium graminearum B-4-5A
[22] = test system: Cryptococcus neoformans; assay: Antifungal activity against Cryptococcus neoformans 94-2586
[23] = test system: Fusarium graminearum; assay: Antifungal activity against Fusarium graminearum infected in wheat plant assessed as fusarium head blight incidence at 180 mg/L (reference value: 70%)
[24] = test system: Fusarium graminearum; assay: Synergistic antifungal activity against Fusarium graminearum infected in wheat plant assessed as fusarium head blight incidence at 180 mg/L in presence of 0.438 L/ha prosaro 421 SC (reference value: 70%)
[25] = test system: Fusarium graminearum; assay: Antifungal activity against Fusarium graminearum B4-5A strain B after 48 hrs by microdilution assay
[26] = test system: Diutina rugosa; assay: Antifungal activity against Candida rugosa 95-967
[27] = test system: Kluyveromyces marxianus; assay: Antifungal activity against Candida pseudotropicalis YOGI
[28] = test system: Fusarium graminearum; assay: Synergistic antifungal activity against Fusarium graminearum infected in wheat plant assessed as spikelet curling at 360 mg/L in presence of 4 ml/L pyraclostrobin (reference value: 51.4%)
[29] = test system: Fusarium graminearum; assay: Synergistic antifungal activity against Fusarium graminearum B4-5A strain C in presence of fluconazole after 48 hrs by microdilution assay
[30] = test system: Fusarium graminearum; assay: Synergistic antifungal activity against Fusarium graminearum infected in wheat plant assessed as fusarium head blight index at 360 mg/L in presence of 0.512 L/ha caramba (reference value: 53%)
[31] = test system: Fusarium graminearum; assay: Synergistic antifungal activity against Fusarium graminearum B4-5A strain C assessed as fluconazole MIC after 48 hrs by microdilution assay
[32] = test system: Fusarium graminearum; assay: Synergistic antifungal activity against Fusarium graminearum infected in wheat plant assessed as fusarium head blight incidence at 360 mg/L in presence of 0.438 L/ha prosaro 421 SC (reference value: 70%)
[33] = test system: Fusarium graminearum; assay: Synergistic antifungal activity against Fusarium graminearum infected in wheat plant assessed as contamination of wheat heads and kernels with deoxynivalenol at 360 mg/L in presence of 4 ml/L pyraclostrobin (reference value: 1.2 ppm)
[34] = test system: Fusarium graminearum; assay: Synergistic antifungal activity against Fusarium graminearum infected in wheat plant assessed as fusarium head blight index at 180 mg/L in presence of 0.512 L/ha caramba (reference value: 53%)
[35] = test system: Candida parapsilosis; assay: Antifungal activity against resistant Candida parapsilosis; conditions: Lodderomyces parapsilosis
[36] = test system: Fusarium graminearum; assay: Antifungal activity against Fusarium graminearum infected in wheat plant assessed as fusarium head blight index at 360 mg/L (reference value: 53%)
[37] = test system: Fusarium graminearum; assay: Antifungal activity against Fusarium graminearum B4-5A strain E after 48 hrs by microdilution assay
[38] = test system: Fusarium graminearum; assay: Antifungal activity against Fusarium graminearum infected in wheat plant assessed as spikelet curling at 360 mg/L (reference value: 51.4%)
[39] = test system: Fusarium graminearum; assay: Synergistic antifungal activity against Fusarium graminearum B4-5A strain B in presence of fluconazole after 48 hrs by microdilution assay
[40] = test system: Candida albicans; assay: Antifungal activity against Candida albicans B-311
[41] = test system: Candida albicans; assay: Antifungal activity against Candida albicans 94-2181
[42] = test system: Fusarium graminearum; assay: Antifungal activity against Fusarium graminearum infected in wheat plant assessed as fusarium head blight severity at 360 mg/L (reference value: 75%)
[43] = test system: Fusarium oxysporum; assay: Antifungal activity against Fusarium oxysporum
[44] = test system: Fusarium graminearum; assay: Synergistic antifungal activity against Fusarium graminearum B4-5A strain B assessed as fluconazole MIC after 48 hrs by microdilution assay
[45] = test system: Fusarium graminearum; assay: Antifungal activity against Fusarium graminearum B4-5A strain C after 48 hrs by microdilution assay
[46] = test system: Aspergillus flavus; assay: Antifungal activity against Aspergillus flavus
[47] = test system: Fusarium graminearum; assay: Synergistic antifungal activity against Fusarium graminearum B4-5A strain A in presence of fluconazole after 48 hrs by microdilution assay
[48] = test system: Aspergillus niger; assay: Antifungal activity against Aspergillus niger
[49] = test system: Fusarium graminearum; assay: Antifungal activity against Fusarium graminearum infected in wheat plant assessed as contamination of wheat heads and kernels with deoxynivalenol at 360 mg/L (reference value: 1.2 ppm)
[50] = test system: Fusarium graminearum; assay: Synergistic antifungal activity against Fusarium graminearum B4-5A strain E assessed as fluconazole MIC after 48 hrs by microdilution assay
[51] = test system: Clavispora lusitaniae; assay: Antifungal activity against Candida lusitaniae 95-767

CCCCCCCCS(=O)(=O)OC[C@H]1O[C@H](O[C@@H]2[C@@H](O)[C@H](O[C@H]3O[C@H](CN)[C@@H](O)[C@H](O)[C@H]3O)[C@@H](N)C[C@H]2N)[C@H](O)[C@@H](N)[C@@H]1O
MIC [1]: 16 µg/mL (≈ 24.2 µM) | Activity [2]: 14% | Activity [3]: 61% | MIC [4]: 15.6 µg/mL (≈ 23.6 µM) | MIC [5]: 3.9 to 7.8 µg/mL (≈ 5.9 to 11.8 µM) | MIC [6]: 125 to 250 µg/mL (≈ 189 to 378 µM) | MIC [7]: 0.195 µg/mL | Activity_index [8]: 9% | MIC [9]: 15.6 µg/mL (≈ 23.6 µM) | fractional inhibitory concentration index (FICI) [10]: 0.5 | MIC [11]: 8 µg/mL | Activity [12]: 0.3 ppm | fractional inhibitory concentration index (FICI) [13]: 0.7 | MIC [14]: 3.9 to 7.8 µg/mL (≈ 5.9 to 11.8 µM) | Activity_index [15]: 6% | MIC [16]: 25 µg/mL | Activity [17]: 15% | Activity_index [18]: 5% | MIC [19]: 31.3 µg/mL (≈ 47.4 µM) | Activity [20]: 60% | MIC [21]: 7.8 µg/mL (≈ 11.8 µM) | MIC [22]: 3.9 to 7.8 µg/mL (≈ 5.9 to 11.8 µM) | Activity [23]: 15% | Activity [24]: 11% | MIC [25]: 16 µg/mL (≈ 24.2 µM) | MIC [26]: 15.6 µg/mL (≈ 23.6 µM) | MIC [27]: 15.6 µg/mL (≈ 23.6 µM) | Activity [28]: 4.7% | MIC [29]: 4 µg/mL | Activity_index [30]: 8% | MIC [31]: 0.25 µg/mL | Activity [32]: 10% | Activity [33]: 1.6 ppm | Activity_index [34]: 7% | MIC [35]: 15.6 to 31.3 µg/mL (≈ 23.6 to 47.4 µM) | Activity_index [36]: 8% | MIC [37]: 16 µg/mL (≈ 24.2 µM) | Activity [38]: 34.7% | MIC [39]: 4 µg/mL | MIC [40]: > 7.8 µg/mL | MIC [41]: > 7.8 µg/mL | Activity [42]: 62% | MIC [43]: 31.3 µg/mL (≈ 47.4 µM) | MIC [44]: 6.25 µg/mL | MIC [45]: 16 µg/mL (≈ 24.2 µM) | MIC [46]: 300 µg/mL (≈ 454 µM) | MIC [47]: 4 µg/mL | MIC [48]: > 150 µg/mL | Activity [49]: 1.4 ppm | MIC [50]: 12.5 µg/mL | MIC [51]: > 7.8 µg/mL
